Measured values: patent publication US20260224536A1, “ARYL HETEROCYCLIC KV1.3 INHIBITOR, PREPARATION METHOD THEREFOR, AND USE THEREOF” (SHANGHAI SHENSHI WISE TECHNOLOGY CO., LTD., priority 2022, published 2026)

What was measured:
Assay type in all cases: cell-based
hERG potassium channel = molecular target: T1, hERG potassium channel (Homo sapiens, UniProt Q12809); experiment: Whole-cell voltage clamp assay for inhibitory activity against hERG; conditions: CHO cells stably expressing hERG, peak tail current at -50 mV, read-out: IC50 for inhibition of hERG
T1 construct: expressed in transfected cells
Procedure: CHO cells stably expressing hERG were cultured in 35 mm diameter cell culture dishes at 37° C. in a 5% CO2 incubator. The cells were passaged at a ratio of 1:5 every 48 h. The culture medium recipe was as follows: 90% F12 (Invitrogen), 10% fetal bovine serum (Gibco), 100 µg/mL G418 (Invitrogen), and 100 µg/mL Hygromycin B (Invitrogen). On the day of the test, the cell culture fluid was aspirated, and the cells were rinsed once with the extracellular fluid. […] The digestion solution was then aspirated, and the cells were resuspended with the extracellular fluid and transferred to an experimental dish for electrophysiological recording for later use. hERG potassium channel currents were recorded at room temperature by the whole-cell voltage clamp technique in the CHO cells stably expressing hERG potassium channels. Glass microelectrodes were formed by pulling a glass electrode blank (BF150-86-10, Sutter) using a puller. The tip resistance after perfusion with the electrode internal solution was about 2-5 MΩ. […] The clamping voltage and data recording were controlled and recorded by a computer with the pClamp software, with a sampling frequency of 10 kHz and a filtering frequency of 2 kHz. […] This voltage stimulation was applied every 5 s, and after the hERG potassium currents were determined to be stable (for 1 min), the drug administration process was started. […]

Kv1.1 potassium channel = molecular target: T2, Kv1.1 potassium channel (Homo sapiens, UniProt Q09470); experiment: Whole-cell patch-clamp assay for inhibitory activity against Kv1.1 (steady state current); conditions: HEK293 cells stably expressing Kv1.1, patch-clamp, read-out: IC50 for inhibition of Kv1.1
T2 construct: expressed in transfected cells
Procedure: (§1) HEK293 cells stably expressing Kv1.X (Kv1.1, Kv1.2, Kv1.3, Kv1.4, Kv1.5) potassium channels were cultured in DMEM medium containing 10% fetal bovine serum and 800 μg/mL G418 (geneticin) at a culture temperature of 37° C. and a carbon dioxide concentration of 5%.
(§2) The extracellular fluid contained […], 3.5 mM KCl, 1 mM MgCl2·6H2O, 2 mM CaCl2·2H2O, 10 mM D-glucose, 10 mM HEPES, 1.25 mM NaH2PO4·2H2O, and the pH was adjusted to 7.4 with NaOH. The intracellular fluid contained 20 mM KCl, 115 mM K-Aspartic, 1 mM MgCl2·6H2O, 5 mM EGTA, 10 mM HEPES, 2 mM Na2-ATP, and the pH was adjusted to 7.2 with KOH.
(§3) The voltage stimulation protocol for recording whole-cell Kv1.X potassium currents via patch-clamp was as follows. After formation of a whole-cell seal, the cell membrane voltage was clamped at −80 mV, and then stepped to +40 mV for 500 ms. […] Then, a slow capacitance compensation was given, and the membrane capacitance and series resistance were recorded. […]
(§4) Once the whole-cell recorded Kv1.X current stabilized, drug administration was started. […] For each cell, the current detected in the compound-free extracellular liquid was used as its own control group. […]
(§5) and then the inhibition rate corresponding to each drug concentration was calculated
(§6) Subsequently, the mean, standard deviation (SD), and standard error (SE) were calculated for the inhibition rate corresponding to each concentration. […]

Kv1.2 potassium channel = molecular target: T3, Kv1.2 potassium channel (Homo sapiens, UniProt P16389); experiment: Whole-cell patch-clamp assay for inhibitory activity against Kv1.2 (steady state current); conditions: HEK293 cells stably expressing Kv1.2, patch-clamp, read-out: IC50 for inhibition of Kv1.2
T3 construct: expressed in transfected cells
Procedure: as §1, §2, §3, §4, §5, §6

Kv1.4 potassium channel = Kv1.4 potassium channel (Homo sapiens, UniProt P22459); experiment: Whole-cell patch-clamp assay for inhibitory activity against Kv1.4 (peak current); conditions: HEK293 cells stably expressing Kv1.4, patch-clamp, read-out: IC50 for inhibition of Kv1.4
Procedure: as §1, §2, §3, §4, §5, §6

Kv1.3 potassium channel = Kv1.3 potassium channel (Homo sapiens, UniProt P22001); experiment: Whole-cell patch-clamp assay for inhibitory activity against Kv1.3 (peak current); conditions: HEK293 cells stably expressing Kv1.3, patch-clamp
Outline: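 Whole-cell currents evoked by a step from −80 mV holding to +40 mV for 500 ms at room temperature. Concentrations perfused cumulatively, low to high, each for 5 min or until steady state. Peak current normalised to each cell's compound-free control; IC50 from nonlinear fit, ≥3 cells per concentration.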

Kv1.5 potassium channel = Kv1.5 potassium channel (Homo sapiens, UniProt P22460); experiment: Whole-cell patch-clamp assay for inhibitory activity against Kv1.5 (steady state current); conditions: HEK293 cells stably expressing Kv1.5, patch-clamp, read-out: IC50 for inhibition of Kv1.5
Procedure: as §1, §2, §3, §4, §5, §6

T2 sequence (Q09470 whole entry): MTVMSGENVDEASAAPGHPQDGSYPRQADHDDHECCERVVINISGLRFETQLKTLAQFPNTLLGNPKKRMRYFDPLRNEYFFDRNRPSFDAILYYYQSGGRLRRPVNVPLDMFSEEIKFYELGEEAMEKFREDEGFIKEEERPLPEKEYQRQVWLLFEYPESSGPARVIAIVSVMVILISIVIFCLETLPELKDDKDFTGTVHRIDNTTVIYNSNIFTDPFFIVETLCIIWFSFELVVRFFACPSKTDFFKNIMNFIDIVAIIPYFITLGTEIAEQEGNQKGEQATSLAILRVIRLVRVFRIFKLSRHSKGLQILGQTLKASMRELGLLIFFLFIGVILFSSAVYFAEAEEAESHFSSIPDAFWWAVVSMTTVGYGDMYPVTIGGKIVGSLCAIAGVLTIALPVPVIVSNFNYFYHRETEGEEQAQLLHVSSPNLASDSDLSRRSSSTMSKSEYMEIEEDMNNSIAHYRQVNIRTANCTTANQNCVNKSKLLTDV
Chain of Kv1.4 potassium channel (P22459 whole entry): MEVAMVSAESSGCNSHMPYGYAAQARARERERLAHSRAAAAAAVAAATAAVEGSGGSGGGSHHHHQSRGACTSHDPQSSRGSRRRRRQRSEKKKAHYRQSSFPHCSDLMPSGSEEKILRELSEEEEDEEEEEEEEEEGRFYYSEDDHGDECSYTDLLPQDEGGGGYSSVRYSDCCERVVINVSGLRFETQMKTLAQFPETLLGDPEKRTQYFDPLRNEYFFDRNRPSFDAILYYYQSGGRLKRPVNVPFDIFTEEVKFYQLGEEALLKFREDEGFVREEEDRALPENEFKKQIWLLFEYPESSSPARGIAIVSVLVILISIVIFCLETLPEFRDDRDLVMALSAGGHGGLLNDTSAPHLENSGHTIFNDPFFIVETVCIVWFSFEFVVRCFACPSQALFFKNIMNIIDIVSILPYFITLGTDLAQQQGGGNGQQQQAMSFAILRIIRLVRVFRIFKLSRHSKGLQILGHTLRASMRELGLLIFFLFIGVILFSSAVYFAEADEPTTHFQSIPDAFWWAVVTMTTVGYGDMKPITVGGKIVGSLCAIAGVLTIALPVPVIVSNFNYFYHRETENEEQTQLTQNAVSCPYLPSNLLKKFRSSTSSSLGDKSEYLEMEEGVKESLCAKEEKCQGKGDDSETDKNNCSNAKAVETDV
Chain of Kv1.5 potassium channel (P22460 whole entry): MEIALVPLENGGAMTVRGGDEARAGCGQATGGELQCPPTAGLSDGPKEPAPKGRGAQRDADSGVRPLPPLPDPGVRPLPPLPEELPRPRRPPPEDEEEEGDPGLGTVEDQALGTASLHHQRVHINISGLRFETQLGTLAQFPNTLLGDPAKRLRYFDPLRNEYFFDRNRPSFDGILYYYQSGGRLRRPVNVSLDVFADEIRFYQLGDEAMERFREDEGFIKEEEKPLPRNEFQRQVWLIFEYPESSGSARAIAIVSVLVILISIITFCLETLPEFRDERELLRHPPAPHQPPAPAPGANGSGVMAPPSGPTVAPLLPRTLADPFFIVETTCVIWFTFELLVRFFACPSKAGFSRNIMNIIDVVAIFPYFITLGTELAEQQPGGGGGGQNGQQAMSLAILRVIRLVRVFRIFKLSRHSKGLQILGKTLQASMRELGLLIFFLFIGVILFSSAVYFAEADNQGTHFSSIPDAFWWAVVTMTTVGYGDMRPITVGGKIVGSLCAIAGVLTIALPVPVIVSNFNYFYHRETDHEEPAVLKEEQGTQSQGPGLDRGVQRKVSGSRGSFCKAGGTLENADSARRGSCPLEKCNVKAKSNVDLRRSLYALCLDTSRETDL
T3 sequence (P16389 whole entry): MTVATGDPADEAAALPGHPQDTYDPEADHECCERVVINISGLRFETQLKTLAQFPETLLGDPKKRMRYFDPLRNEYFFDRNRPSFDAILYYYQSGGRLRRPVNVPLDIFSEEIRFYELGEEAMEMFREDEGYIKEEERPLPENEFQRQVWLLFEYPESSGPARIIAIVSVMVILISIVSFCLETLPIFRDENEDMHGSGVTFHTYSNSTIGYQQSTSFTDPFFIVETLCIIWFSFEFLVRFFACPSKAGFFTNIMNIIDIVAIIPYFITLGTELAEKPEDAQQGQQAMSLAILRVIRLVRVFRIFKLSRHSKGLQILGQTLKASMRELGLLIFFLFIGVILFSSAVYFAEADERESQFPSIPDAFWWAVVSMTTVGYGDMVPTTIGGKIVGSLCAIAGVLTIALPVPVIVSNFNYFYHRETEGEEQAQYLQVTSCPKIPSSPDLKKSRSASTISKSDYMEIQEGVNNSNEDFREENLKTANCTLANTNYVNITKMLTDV
Chain of Kv1.3 potassium channel (P22001 whole entry, the tested form may be a part): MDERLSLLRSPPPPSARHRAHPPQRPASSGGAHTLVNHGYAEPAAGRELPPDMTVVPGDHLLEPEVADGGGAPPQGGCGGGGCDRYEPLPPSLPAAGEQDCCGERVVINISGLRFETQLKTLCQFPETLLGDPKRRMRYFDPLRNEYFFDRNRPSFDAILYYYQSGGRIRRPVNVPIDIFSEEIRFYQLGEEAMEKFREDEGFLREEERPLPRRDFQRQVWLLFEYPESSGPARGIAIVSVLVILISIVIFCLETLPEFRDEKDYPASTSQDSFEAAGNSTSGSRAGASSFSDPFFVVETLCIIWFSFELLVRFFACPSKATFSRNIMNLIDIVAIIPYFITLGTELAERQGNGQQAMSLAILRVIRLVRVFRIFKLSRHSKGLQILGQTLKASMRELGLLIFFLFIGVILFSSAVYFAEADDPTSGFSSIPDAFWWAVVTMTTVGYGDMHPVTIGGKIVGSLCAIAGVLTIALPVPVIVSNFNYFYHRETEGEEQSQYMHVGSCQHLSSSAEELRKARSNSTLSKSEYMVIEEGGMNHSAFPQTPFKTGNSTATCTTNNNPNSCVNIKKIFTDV
T1 sequence (Q12809 whole entry): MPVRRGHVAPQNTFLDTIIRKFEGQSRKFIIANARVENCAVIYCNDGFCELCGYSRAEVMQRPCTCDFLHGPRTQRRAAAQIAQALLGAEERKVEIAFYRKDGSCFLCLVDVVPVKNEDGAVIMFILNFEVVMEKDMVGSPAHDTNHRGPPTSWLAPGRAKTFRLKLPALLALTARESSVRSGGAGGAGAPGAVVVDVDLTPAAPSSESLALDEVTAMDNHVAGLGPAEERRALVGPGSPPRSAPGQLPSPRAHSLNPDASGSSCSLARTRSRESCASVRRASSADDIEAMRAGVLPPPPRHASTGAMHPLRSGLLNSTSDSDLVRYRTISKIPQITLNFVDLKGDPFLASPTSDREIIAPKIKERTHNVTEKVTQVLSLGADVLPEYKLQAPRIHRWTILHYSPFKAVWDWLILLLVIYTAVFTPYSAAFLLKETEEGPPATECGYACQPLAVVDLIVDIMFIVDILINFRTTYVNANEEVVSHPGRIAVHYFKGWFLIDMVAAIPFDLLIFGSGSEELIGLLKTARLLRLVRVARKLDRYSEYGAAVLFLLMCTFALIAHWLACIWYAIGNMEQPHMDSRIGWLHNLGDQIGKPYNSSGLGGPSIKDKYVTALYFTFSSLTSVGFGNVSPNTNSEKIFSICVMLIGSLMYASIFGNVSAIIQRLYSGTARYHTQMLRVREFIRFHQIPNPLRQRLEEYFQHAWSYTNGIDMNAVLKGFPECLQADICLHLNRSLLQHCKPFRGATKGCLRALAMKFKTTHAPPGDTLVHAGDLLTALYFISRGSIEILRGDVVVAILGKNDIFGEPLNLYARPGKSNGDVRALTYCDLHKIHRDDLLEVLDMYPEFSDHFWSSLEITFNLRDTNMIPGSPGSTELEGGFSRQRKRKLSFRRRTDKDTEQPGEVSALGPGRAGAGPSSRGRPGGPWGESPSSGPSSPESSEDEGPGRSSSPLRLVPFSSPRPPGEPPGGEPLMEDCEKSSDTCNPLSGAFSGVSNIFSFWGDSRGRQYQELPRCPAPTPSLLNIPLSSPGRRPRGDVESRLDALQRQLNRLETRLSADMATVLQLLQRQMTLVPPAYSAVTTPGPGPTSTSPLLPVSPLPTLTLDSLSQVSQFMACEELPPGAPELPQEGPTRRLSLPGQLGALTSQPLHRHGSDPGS

With OCc1nnc2n1C[C@H](c1c(O)ccc(Cl)c1Cl)C2 [Example 2, (S)-3,4-dichloro-2-(3-(hydroxymethyl)-6,7-dihydro-5H-pyrrolo[2,1-c][1,2,4]triazol-6-yl)phenol] the IC50 (hERG potassium channel) was > 30 µM, the IC50 (Kv1.1 potassium channel) was > 100 µM and the IC50 (Kv1.2 potassium channel) was > 100 µM. For the same molecule, the IC50 (Kv1.4 potassium channel) was > 30 µM, the IC50 (Kv1.3 potassium channel) was 0.0281 µM and the IC50 (Kv1.5 potassium channel) was > 100 µM.

In the case of Oc1ccc(Cl)c(Cl)c1[C@@H]1Cc2nnc([C@@H]3CCOC3)n2C1 [Example 54, 3,4-Dichloro-2-((S)-3-((S)-tetrahydrofuran-3-yl)-6,7-dihydro-5H-pyrrolo[2,1-c][1,2,4]triazol-6-yl)phenol], the IC50 (hERG potassium channel) is reported as > 30 µM, the IC50 (Kv1.1 potassium channel) is reported as > 100 µM and the IC50 (Kv1.2 potassium channel) is reported as > 100 µM. The IC50 (Kv1.4 potassium channel) was > 30 µM, the IC50 (Kv1.3 potassium channel) was 0.0077 µM and the IC50 (Kv1.5 potassium channel) was > 100 µM.
